Test results as given in ChEMBL document CHEMBL4422645, “Benzimidazole tethered pyrrolo[3,4-b]quinoline with broad-spectrum activity against fungal pathogens” (Bioorg Med Chem Lett, 2019).
≈ marks a conversion by molar mass, not a printed value.

Assays:
Candida albicans [1] = assay: Antifungal activity against Candida albicans after 24 hrs by microbroth dilution method; type: functional
Candida albicans [2] = assay: Antifungal activity against Candida albicans NR-29434 after 24 hrs by microbroth dilution method; type: functional; conditions: NR-29434, 24 h
Candida albicans [3] = assay: Antifungal activity against Candida albicans NR-29449 after 24 hrs by microbroth dilution method; type: functional; conditions: NR-29449, 24 h
Candida albicans [4] = assay: Antifungal activity against Candida albicans NR-29435 after 24 hrs by microbroth dilution method; type: functional; conditions: NR-29435, 24 h
Candida albicans [5] = assay: Antifungal activity against Candida albicans NR-29448 after 24 hrs by microbroth dilution method; type: functional; conditions: NR-29448, 24 h
Candida albicans [6] = assay: Antifungal activity against Candida albicans NR-29437 after 24 hrs by microbroth dilution method; type: functional; conditions: NR-29437, 24 h
Candida albicans [7] = assay: Antifungal activity against Candida albicans NR-29446 after 24 hrs by microbroth dilution method; type: functional; conditions: NR-29446, 24 h
Candida albicans [8] = assay: Antifungal activity against Candida albicans […] after 24 hrs by microbroth dilution method; type: functional
Candida albicans [9] = assay: Antifungal activity against Candida albicans NR-29438 after 24 hrs by microbroth dilution method; type: functional; conditions: NR-29438, 24 h
Candida albicans [10] = assay: Antifungal activity against Candida albicans NR-29366 after 24 hrs by microbroth dilution method; type: functional; conditions: NR-29366, 24 h
Candida albicans [11] = assay: Antifungal activity against Candida albicans NR-29367 after 24 hrs by microbroth dilution method; type: functional; conditions: NR-29367, 24 h
Candida albicans [12] = assay: Antifungal activity against Candida albicans NR-29439 after 24 hrs by microbroth dilution method; type: functional; conditions: NR-29439, 24 h
Candida albicans [13] = assay: Antifungal activity against Candida albicans NR-29440 after 24 hrs by microbroth dilution method; type: functional; conditions: NR-29440, 24 h
Candida albicans [14] = assay: Antifungal activity against Candida albicans NR-29441 after 24 hrs by microbroth dilution method; type: functional; conditions: NR-29441, 24 h
Candida albicans [15] = assay: Antifungal activity against Candida albicans NR-29442 after 24 hrs by microbroth dilution method; type: functional; conditions: NR-29442, 24 h
Candida albicans [16] = assay: Antifungal activity against Candida albicans NR-29444 after 24 hrs by microbroth dilution method; type: functional; conditions: NR-29444, 24 h
Candida parapsilosis = assay: Antifungal activity against Candida parapsilosis ATCC 22019 after 24 hrs by microbroth dilution method; type: functional; conditions: Lodderomyces parapsilosis, ATCC 22019, 24 h
Nakaseomyces glabratus = assay: Antifungal activity against Candida glabrata ATCC 90030 after 24 hrs by microbroth dilution method; type: functional; conditions: ATCC 90030, 24 h
Candida albicans [17] = assay: Antifungal activity against Candida albicans ATCC 10231 after 24 hrs by microbroth dilution method; type: functional; conditions: ATCC 10231, 24 h
Cryptococcus neoformans [18] = assay: Antifungal activity against Cryptococcus neoformans NR-41291 after 24 hrs by microbroth dilution method; type: functional; conditions: NR-41291, 24 h
Cryptococcus neoformans [19] = assay: Antifungal activity against Cryptococcus neoformans NR-41292 after 24 hrs by microbroth dilution method; type: functional; conditions: NR-41292, 24 h
Cryptococcus neoformans [20] = assay: Antifungal activity against Cryptococcus neoformans NR-41296 after 24 hrs by microbroth dilution method; type: functional; conditions: NR-41296, 24 h
Cryptococcus neoformans [21] = assay: Antifungal activity against Cryptococcus neoformans NR-41295 after 24 hrs by microbroth dilution method; type: functional; conditions: NR-41295, 24 h
Cryptococcus neoformans [22] = assay: Antifungal activity against Cryptococcus neoformans NR-41294 after 24 hrs by microbroth dilution method; type: functional; conditions: NR-41294, 24 h
Cryptococcus neoformans [23] = assay: Antifungal activity against Cryptococcus neoformans NR-41297 after 24 hrs by microbroth dilution method; type: functional; conditions: NR-41297, 24 h
Cryptococcus neoformans [24] = assay: Antifungal activity against Cryptococcus neoformans NR-41298 after 24 hrs by microbroth dilution method; type: functional; conditions: NR-41298, 24 h
Cryptococcus neoformans [25] = assay: Antifungal activity against Cryptococcus neoformans NR-41299 after 24 hrs by microbroth dilution method; type: functional; conditions: NR-41299, 24 h
Candida albicans [26] = assay: Antibiofilm activity against 48 hrs old pre-formed biofilms of Candida albicans ATCC 10231 at 16 ug/ml after 24 hrs by MTS assay relative to control; type: functional
Candida albicans [27] = assay: Antibiofilm activity against 48 hrs old pre-formed biofilms of Candida albicans ATCC 10231 at 32 ug/ml after 24 hrs by MTS assay relative to control; type: functional
Candida albicans [28] = assay: Antibiofilm activity against 48 hrs old pre-formed biofilms of Candida albicans ATCC 10231 at 128 ug/ml after 24 hrs by MTS assay relative to control; type: functional
HCT-116 [29] = assay: Cytotoxicity against human HCT116 cells assessed as reduction in cell viability up to 4 ug/ml after 24 hrs by MTS assay; type: cell-based; conditions: hct-116, 24 h
HCT-116 [30] = assay: Cytotoxicity against human HCT116 cells assessed as reduction in cell viability at 32 to 128 ug/ml after 24 hrs by MTS assay; type: cell-based; conditions: hct-116, 24 h

SMILES: Clc1cccc2cc3c(nc12)-c1nc2ccccc2n1C3
- MIC (Candida albicans [1]): 64 µg/mL (≈ 219 µM)

SMILES: Brc1cccc2cc3c(nc12)-c1nc2ccccc2n1C3
- MIC (Candida albicans [1]): > 64 µg/mL

SMILES: c1ccc2nc3c(cc2c1)Cn1c-3nc2ccccc21
- MIC (Candida albicans [1]): 0.5 µg/mL (≈ 1.94 µM)
- MIC (Candida albicans [2]): 0.25 µg/mL (≈ 0.972 µM)
- MIC (Candida albicans [3]): 0.0625 µg/mL (≈ 0.243 µM)
- MIC (Candida albicans [4]): 0.5 µg/mL (≈ 1.94 µM)
- MIC (Candida albicans [5]): 0.25 µg/mL (≈ 0.972 µM)
- MIC (Candida albicans [6]): 0.0625 µg/mL (≈ 0.243 µM)
- MIC (Candida albicans [7]): 0.5 µg/mL (≈ 1.94 µM)
- MIC (Candida albicans [8]): 0.0625 µg/mL (≈ 0.243 µM)
- MIC (Candida albicans [9]): 0.25 µg/mL (≈ 0.972 µM)
- MIC (Candida albicans [10]): 0.5 µg/mL (≈ 1.94 µM)
- MIC (Candida albicans [11]): 0.5 µg/mL (≈ 1.94 µM)
- MIC (Candida albicans [12]): 0.5 µg/mL (≈ 1.94 µM)
- MIC (Candida albicans [13]): 0.5 µg/mL (≈ 1.94 µM)
- MIC (Candida albicans [14]): 0.5 µg/mL (≈ 1.94 µM)
- MIC (Candida albicans [15]): 0.5 µg/mL (≈ 1.94 µM)
- MIC (Candida albicans [16]): 0.25 µg/mL (≈ 0.972 µM)
- MIC (Candida parapsilosis): 1 µg/mL (≈ 3.89 µM)
- MIC (Nakaseomyces glabratus): 1 µg/mL (≈ 3.89 µM)
- MIC (Candida albicans [17]): 0.5 µg/mL (≈ 1.94 µM)
- MIC (Cryptococcus neoformans [18]): 1 µg/mL (≈ 3.89 µM)
- MIC (Cryptococcus neoformans [19]): 0.5 µg/mL (≈ 1.94 µM)
- MIC (Cryptococcus neoformans [20]): 1 µg/mL (≈ 3.89 µM)
- MIC (Cryptococcus neoformans [21]): 2 µg/mL (≈ 7.77 µM)
- MIC (Cryptococcus neoformans [22]): 1 µg/mL (≈ 3.89 µM)
- MIC (Cryptococcus neoformans [23]): 0.5 µg/mL (≈ 1.94 µM)
- MIC (Cryptococcus neoformans [24]): 2 µg/mL (≈ 7.77 µM)
- MIC (Cryptococcus neoformans [25]): 2 µg/mL (≈ 7.77 µM)
- Activity (Candida albicans [26]): 25%
- Activity (Candida albicans [27]): 40%
- Activity (Candida albicans [28]): 60%
- Activity (HCT-116 [29]): Non-Toxic
- Activity (HCT-116 [30]): 25%

SMILES: COc1cccc2cc3c(nc12)-c1nc2ccccc2n1C3
- MIC (Candida albicans [1]): 64 µg/mL (≈ 223 µM)

SMILES: COc1ccc2cc3c(nc2c1)-c1nc2ccccc2n1C3
- MIC (Candida albicans [1]): > 64 µg/mL

SMILES: OC(Cn1cncn1)(Cn1cncn1)c1ccc(F)cc1F [FLUCONAZOLE]
- MIC (Candida albicans [2]): 0.5 µg/mL (≈ 1.63 µM)
- MIC (Candida albicans [3]): 0.5 µg/mL (≈ 1.63 µM)
- MIC (Candida albicans [4]): 0.25 µg/mL (≈ 0.816 µM)
- MIC (Candida albicans [5]): > 64 µg/mL
- MIC (Candida albicans [6]): 2 µg/mL (≈ 6.53 µM)
- MIC (Candida albicans [7]): > 64 µg/mL
- MIC (Candida albicans [8]): 2 µg/mL (≈ 6.53 µM)
- MIC (Candida albicans [9]): 0.5 µg/mL (≈ 1.63 µM)
- MIC (Candida albicans [10]): > 64 µg/mL
- MIC (Candida albicans [11]): > 64 µg/mL
- MIC (Candida albicans [12]): > 64 µg/mL
- MIC (Candida albicans [13]): 2 µg/mL (≈ 6.53 µM)
- MIC (Candida albicans [14]): 4 µg/mL (≈ 13.1 µM)
- MIC (Candida albicans [15]): 16 µg/mL (≈ 52.2 µM)
- MIC (Candida albicans [16]): 2 µg/mL (≈ 6.53 µM)
- MIC (Candida parapsilosis): 0.25 µg/mL (≈ 0.816 µM)
- MIC (Nakaseomyces glabratus): 1 µg/mL (≈ 3.27 µM)
- MIC (Candida albicans [17]): 1 µg/mL (≈ 3.27 µM)
- MIC (Cryptococcus neoformans [18]): 1 µg/mL (≈ 3.27 µM)
- MIC (Cryptococcus neoformans [19]): 1 µg/mL (≈ 3.27 µM)
- MIC (Cryptococcus neoformans [20]): 1 µg/mL (≈ 3.27 µM)
- MIC (Cryptococcus neoformans [21]): 2 µg/mL (≈ 6.53 µM)
- MIC (Cryptococcus neoformans [22]): 2 µg/mL (≈ 6.53 µM)
- MIC (Cryptococcus neoformans [23]): 0.5 µg/mL (≈ 1.63 µM)
- MIC (Cryptococcus neoformans [24]): 4 µg/mL (≈ 13.1 µM)
- MIC (Cryptococcus neoformans [25]): 2 µg/mL (≈ 6.53 µM)
- Activity (Candida albicans [26]): 25%
- Activity (Candida albicans [28]): 40%

SMILES: Cc1ccc2cc3c(nc2c1)-c1nc2ccccc2n1C3
- MIC (Candida albicans [1]): 32 µg/mL (≈ 118 µM)

SMILES: COc1ccc2nc3c(cc2c1)Cn1c-3nc2ccccc21
- MIC (Candida albicans [1]): 16 µg/mL (≈ 55.7 µM)

SMILES: Cc1ccc2nc3c(cc2c1)Cn1c-3nc2ccccc21
- MIC (Candida albicans [1]): 32 µg/mL (≈ 118 µM)

SMILES: Cc1cccc2cc3c(nc12)-c1nc2ccccc2n1C3
- MIC (Candida albicans [1]): 16 µg/mL (≈ 59 µM)
